{"source": "patent US20230121313A1", "about": "(priority 2019, published 2023)", "key": {"[1]": {"tested_on": "subjects with MDD at imminent risk for suicide", "experiment": "MADRS total score, Study […]2001 (change, sustained response, response, remission)", "format": "in vivo, human", "details": "for MADRS total score change, Diff. of LS Means (minus Placebo): ANCOVA LOCF; for MADRS total score, change from baseline, mean / MADRS total score, change from baseline, median / MADRS total score, mean / MADRS total score, median: LOCF, ITT N = 35", "source_text": "Primary efficacy variable/Primary Time point: Change from baseline (Day 1, predose) to Day 1, 4-hours postdose in MADRS total score. The MADRS consists of 10 items that cover all of the core depressive symptoms, with each item scoring from 0 (item is not present or is normal) to 6 (severe or continuous presence of the symptom). A higher score represents a more severe condition.\n• a. Changes from baseline to Day 2 and Day 25 for the MADRS total score • b. Changes from baseline to Day 1 4-hours postdose, Day 2 and Day 25 for the MADRS Suicide Item • c. Changes from baseline to Day 1 4-hours postdose, Day 2, and Day 25 for the clinical global judgment of suicide risk from the Suicide Ideation and Behavior Assessment Tool (SIBAT) • d. Sustained response (Onset of Clinical Response) defined as at least 50% reduction from baseline in MADRS total score with onset on Day 1 that is maintained through the end of the double-blind phase (Day 25) • e. Changes from baseline to Day 1 4-hours postdose, Day 2, and Day 25 for the Beck Scale for Suicidal Ideation (BSS) • f. Changes from baseline to Day 1 4-hours postdose and Day 25 for the Beck Hopelessness Scale\nThe primary efficacy endpoint is the change in MADRS total score from baseline to Day 1: 4-hours postdose. MADRS total scores range from 0 to 60. […] As this is a phase 2a proof-of-concept study, statistical significance is based on a two-sided alpha level of 0.20. All p-values presented in this document are two-sided.\nSustained response is defined as at least 50% reduction from baseline in MADRS total score with onset on Day 1: 4 hours postdose that is maintained through the end of the double-blind phase (Day 25). Four subjects in the esketamine 84 mg group and 2 subjects in the placebo group had sustained response throughout the double-blind phase."}, "[2]": {"protocol": "This example provides an LC-MS/MS method for the determination of ketamine and norketamine in sodium heparin human plasma using ketamine-d4 and norketamine-d4 as the respective internal standards (IS).\nRetention time and peak area were determined by Analyst® Data Acquisition/Processing Software (Version 1.4.2). Analyte concentrations were obtained from a calibration curve constructed by plotting the peak area ratio versus the concentration using Watson LIMS (Version 7.3). Watson LIMS and Microsoft Office Excel were used for statistical calculations. When Office Excel was used the calculations were 100% audited. Concentrations were calculated using linear regression according to the following equation: […]\nSelectivity is defined as the ability of a chromatographic method to measure a response from the analyte without interference from the biological matrix. This was accomplished by evaluating six individual lots of human plasma prepared as blank and at the lower limit of quantitation (LLOQ, 0.500 ng/mL).\nThe matrix effect is defined as the suppression or enhancement of ionization of analytes by the presence of matrix components in the biological samples. See, e.g., C. T. Viswanathan, “Quantitative Bioanalytical Methods Validation and Implementation: Best Practices for Chromatographic and Ligand Binding Assays,” Pharmaceutical Research, Vol. 24, No. 10, October 2007, p. 1969. The matrix effect was evaluated by extracting single replicates of six lots of blank human plasma and spiking each lot at the Low and High QC concentration levels (1.50 ng/mL and 375 ng/mL) post extraction. The area ratios of the six lots of post-extraction spiked plasma samples were compared to the mean area ratio obtained from three replicates of the neat solution prepared at the same concentration level in purified water.\nThe linearity of the method was evaluated at a linear range of 0.500/0.500-500/500 ng/mL for ketamine/norketamine in human plasma. Linear regression (with a weighting factor of 1/x2) was used to produce the best fit for the concentration-detector response relationship for ketamine and norketamine in human plasma.\nThe validation was conducted with a target LLOQ of 0.500 ng/mL for ketamine and norketamine in human plasma. To evaluate the sensitivity, six QC samples prepared at the LLOQ were analyzed during three individual batch runs as part of the intra-run and inter-run accuracy and precision for the method. The concentrations were calculated with the calibration curve.\nThe intra-run and inter-run accuracy and precision of the method were investigated at four different QC concentration levels (0.500 ng/mL (LLOQ), 1.50 ng/mL, 80.0 ng/mL, and 375 ng/mL).\nRecoveries were calculated according to the following formula: […]\nTo assess the reinjection reproducibility, an analyte batch containing a standard curve and QC samples was reinjected after being kept at room temperature for 161.5 hours."}, "subjects with TRD": {"tested_on": "subjects with TRD", "details": "human, in vivo, other: intranasal", "procedure": "(§1) The Clinician Administered Dissociative States Scale (CADSS) was measured prior to the start of each dose, at 40 minutes, and 1.5 hours postdose."}, "[3]": {"tested_on": "elderly subjects with TRD", "details": "human, in vivo, other: intranasal", "procedure": "as §1"}}, "data": [{"smiles": "CN[C@]1(c2ccccc2Cl)CCCCC1=O", "note": "[esketamine, (S)-2-(2-chlorophenyl)-2-(methylamino)cyclohexanone]", "values": [{"measurement": "MADRS total score change, Diff. of LS Means (minus Placebo)", "setting": "[1]; 84 mg, Day 1 (DB): 4 H", "result": "−5.3"}, {"measurement": "MADRS total score, change from baseline, mean", "setting": "[1]; 84 mg, Day 1 (DB): 4 H", "result": "−13.4"}, {"measurement": "MADRS total score, change from baseline, median", "setting": "[1]; 84 mg, Day 1 (DB): 4 H", "result": "−14.0"}, {"measurement": "MADRS total score, mean", "setting": "[1]; 84 mg, Day 1 (DB): 4 H", "result": 25.1}, {"measurement": "MADRS total score, median", "setting": "[1]; 84 mg, Day 1 (DB): 4 H", "result": 23.0}, {"measurement": "MADRS total score change, Diff. of LS Means (minus Placebo)", "setting": "[1]; 84 mg, Day 2 (DB)", "result": "−7.2"}, {"measurement": "MADRS total score, change from baseline, mean", "setting": "[1]; 84 mg, Day 2 (DB)", "result": "−19.3"}, {"measurement": "MADRS total score, change from baseline, median", "setting": "[1]; 84 mg, Day 2 (DB)", "result": "−19.0"}, {"measurement": "MADRS total score, mean", "setting": "[1]; 84 mg, Day 2 (DB)", "result": 19.2}, {"measurement": "MADRS total score, median", "setting": "[1]; 84 mg, Day 2 (DB)", "result": 18.0}, {"measurement": "MADRS total score change, Diff. of LS Means (minus Placebo)", "setting": "[1]; 84 mg, End Point (DB)", "result": "−4.5"}, {"measurement": "MADRS total score, change from baseline, mean", "setting": "[1]; 84 mg, End Point (DB)", "result": "−26.4"}, {"measurement": "MADRS total score, change from baseline, median", "setting": "[1]; 84 mg, End Point (DB)", "result": "−25.0"}, {"measurement": "MADRS total score, mean", "setting": "[1]; 84 mg, End Point (DB)", "result": 12.1}, {"measurement": "MADRS total score, median", "setting": "[1]; 84 mg, End Point (DB)", "result": 8.0}, {"measurement": "Day 25 sustained response based on MADRS total score: No, subjects (%)", "setting": "[1]; 84 mg, ITT", "result": 88.2, "unit": "%"}, {"measurement": "Day 25 sustained response based on MADRS total score: Yes, subjects (%)", "setting": "[1]; 84 mg, at least 50 percent reduction with onset on Day 1 maintained through Day 25, ITT", "result": 11.8, "unit": "%"}, {"measurement": "Subjects with sustained response (≥50% MADRS reduction from Day 1 4 h through Day 25)", "setting": "[1]; […]2001, 84 mg", "result": "Four"}, {"measurement": "MADRS total score: mean change from baseline (SD)", "setting": "[1]; […]2001, 84 mg, Day 1: 4-hours postdose", "result": "−13.4 (9.03)"}, {"measurement": "MADRS total score: mean change from baseline (SD)", "setting": "[1]; […]2001, 84 mg, Day 2 (DB)", "result": "−19.3 (12.02)"}, {"measurement": "MADRS total score: mean change from baseline (SD)", "setting": "[1]; […]2001, 84 mg, End Point (DB)", "result": "−26.4 (14.52)"}, {"measurement": "Subjects who discontinued due to lack of efficacy", "setting": "[1]; […]2001, 84 mg, double-blind phase", "result": 1, "unit": "subject"}, {"measurement": "MADRS total score: least-square mean difference (SE) from placebo, ANCOVA", "setting": "[1]; […]2001, esketamine 84 mg, Day 1, 4-hours postdose", "result": "−5.3 (2.10)"}, {"measurement": "QC sample freeze/thaw stability", "setting": "[2]; freeze (−20° C.)/thaw (room temperature)", "result": "3 freeze (−20° C.)/thaw (room temperature) cycles"}, {"measurement": "QC sample long-term storage stability", "setting": "[2]; human plasma QC sample at −20° C.", "result": 707, "unit": "days at −20 °C"}, {"measurement": "QC sample bench-top stability", "setting": "[2]; human plasma QC sample, room temperature", "result": 18, "unit": "hours at room temperature"}, {"measurement": "CADSS dissociative/perceptual change symptoms resolved by (post dose)", "setting": "subjects with TRD", "result": "≤ 1.5", "unit": "h"}, {"measurement": "CADSS dissociative and perceptual change symptoms resolved by (postdose)", "setting": "[3]", "result": "≤ 1.5", "unit": "h"}]}]}
